Test results: patent US20240254119A1 (THIRD HARMONIC BIO, INC., priority 2022, published 2024)

How the values were obtained:
[1] = test system: CYP3A4; assay: Hepatocyte CYP induction assay, CYP3A4 gene expression; assay type: in vitro ADME; conditions: human hepatocytes
Outline: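 Cryopreserved human hepatocytes in Matrigel sandwich culture were dosed in 0.1% DMSO for 48 h at 37 °C, with medium and compound renewed at 24 h, in triplicate; rifampicin was the positive control. CYP3A4 mRNA was measured by qPCR, normalized to 18S rRNA, and fold change (2^−ΔΔCt vs vehicle) […].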

[2] = target: T1, MDR1 (MDR1-MDCKII cells) (Homo sapiens, UniProt P08183); assay: Permeability in MDR1-MDCKII cells; assay type: in vitro ADME; conditions: for MDCKII-MDR1: Papp A-B: MDCKII-MDR1, apical to basolateral
T1 construct: host or cells: MDCKII (canine kidney) cells
Method: Exemplary compounds were tested for cell permeability in Caco-2, MDCKII-MDR1 and MDCKII-BCRP cell lines with efflux transporter engagement inferred from the efflux ratios determined. Procedures and results are described below. […] This feature of certain compounds is in part due to efflux transporter engagement. See, for instance, exemplary such compounds included in data tables below.
MDR1-MDCKII cells (obtained from Piet Borst at the Netherlands Cancer Institute) were seeded onto […] membranes (PET) in 96-well insert systems at 2.5×10^5 cells/mL until to 4-7 days for confluent cell monolayer formation.
Test compounds were diluted with the transport buffer (HBSS with 10 mM Hepes, pH7.4) from DMSO stock solution to a concentration of 2.00 μM (DMSO<1%) and applied to the apical or basolateral side of the cell monolayer. Permeation of the test compounds from A to B direction or B to A direction was determined in duplicate. Digoxin was tested at 10.0 μM from A to B direction or B to A direction as well, while nadolol and metoprolol were tested at […] in A to B direction in duplicate. The plate was incubated for 2.5 hours in CO2 incubator at 37±1° C., with 5% CO2 at saturated humidity without shaking. In addition, the efflux ratio of each compound was also determined. Test and reference compounds were quantified by LC-MS/MS analysis based on the peak area ratio of analyte/IS.
After transport assay, Lucifer yellow rejection assay are applied to determine the cell monolayer integrity. Buffers are removed from both apical and basolateral chambers, followed by the addition of 75 μL of 100 μM lucifer yellow in transport buffer and 250 μL transport buffer in apical and basolateral chambers, respectively. The plate is incubated for 30 minutes at 37° C. with 5% CO2 and saturated humidity without shaking. After 30 minutes incubation, 20 μL of lucifer yellow samples are taken from the apical sides, followed by the addition of 60 μL of Transport Buffer. And then 80 μL of lucifer yellow samples are taken from the basolateral sides. The relative fluorescence unit (RFU) of lucifer yellow is measured at 425/528 nm (excitation/emission) with an Envision plate reader.
The apparent permeability coefficient Papp (cm/s) was calculated using the equation: […]
Where dCr/dt is the cumulative concentration of compound in the receiver chamber as a function of time (μM/s); Vr is the solution volume in the receiver chamber (0.075 mL on the apical side, 0.25 mL on the basolateral side); A is the surface area for the transport, i.e. 0.0804 cm^2 for the area of the monolayer; C0 is the initial concentration in the donor chamber (μM). The efflux ratio was calculated using the equation: […]
Where Vd is the volume in the donor chambers (0.075 mL on the apical side, 0.25 mL on the basolateral side); Cd and Cr are the final concentrations of transport compound in donor and receiver chambers, respectively.

[3] = target: T2, CSF-1R (Homo sapiens, UniProt P07333); assay: HTRF biochemical assay, CSF-1R; conditions: Table 4
T2 construct: purchased Invitrogen PV3249 (lot 662393N)
Outline: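 Kinase phosphorylation of a FAM-labelled peptide substrate, with ATP and Mn^2+ cofactors, run for 3 h at 25 °C, with optional enzyme–compound pre-incubation. Reactions were quenched with EDTA, and phosphopeptide was detected by anti-phosphotyrosine antibody HTRF.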

T2 sequence (P07333 20-972): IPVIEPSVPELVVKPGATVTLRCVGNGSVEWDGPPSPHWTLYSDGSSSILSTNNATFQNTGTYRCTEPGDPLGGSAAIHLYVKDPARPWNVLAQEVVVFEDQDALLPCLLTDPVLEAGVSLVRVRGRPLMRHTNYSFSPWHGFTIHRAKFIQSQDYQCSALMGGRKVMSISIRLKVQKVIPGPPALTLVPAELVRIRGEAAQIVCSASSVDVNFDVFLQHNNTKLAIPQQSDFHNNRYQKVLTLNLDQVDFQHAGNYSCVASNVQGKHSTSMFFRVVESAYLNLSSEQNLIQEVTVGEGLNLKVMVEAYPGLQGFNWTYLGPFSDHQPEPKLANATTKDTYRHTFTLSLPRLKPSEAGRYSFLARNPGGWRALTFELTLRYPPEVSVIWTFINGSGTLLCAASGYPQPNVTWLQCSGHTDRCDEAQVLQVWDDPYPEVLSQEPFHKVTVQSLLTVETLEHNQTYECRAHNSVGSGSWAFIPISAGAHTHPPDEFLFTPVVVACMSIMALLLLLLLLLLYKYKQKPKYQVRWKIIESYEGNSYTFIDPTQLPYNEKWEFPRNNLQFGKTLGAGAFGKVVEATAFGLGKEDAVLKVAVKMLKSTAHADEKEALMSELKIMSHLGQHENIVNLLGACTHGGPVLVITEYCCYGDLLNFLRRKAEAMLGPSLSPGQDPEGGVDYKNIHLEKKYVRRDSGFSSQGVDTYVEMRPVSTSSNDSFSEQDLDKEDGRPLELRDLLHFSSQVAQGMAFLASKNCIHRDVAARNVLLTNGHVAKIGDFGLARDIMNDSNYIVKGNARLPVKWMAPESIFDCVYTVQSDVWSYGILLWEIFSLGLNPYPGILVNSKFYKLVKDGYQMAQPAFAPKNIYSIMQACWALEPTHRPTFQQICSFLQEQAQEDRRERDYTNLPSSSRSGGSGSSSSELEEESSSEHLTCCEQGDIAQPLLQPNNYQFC
T1 sequence (P08183 whole entry): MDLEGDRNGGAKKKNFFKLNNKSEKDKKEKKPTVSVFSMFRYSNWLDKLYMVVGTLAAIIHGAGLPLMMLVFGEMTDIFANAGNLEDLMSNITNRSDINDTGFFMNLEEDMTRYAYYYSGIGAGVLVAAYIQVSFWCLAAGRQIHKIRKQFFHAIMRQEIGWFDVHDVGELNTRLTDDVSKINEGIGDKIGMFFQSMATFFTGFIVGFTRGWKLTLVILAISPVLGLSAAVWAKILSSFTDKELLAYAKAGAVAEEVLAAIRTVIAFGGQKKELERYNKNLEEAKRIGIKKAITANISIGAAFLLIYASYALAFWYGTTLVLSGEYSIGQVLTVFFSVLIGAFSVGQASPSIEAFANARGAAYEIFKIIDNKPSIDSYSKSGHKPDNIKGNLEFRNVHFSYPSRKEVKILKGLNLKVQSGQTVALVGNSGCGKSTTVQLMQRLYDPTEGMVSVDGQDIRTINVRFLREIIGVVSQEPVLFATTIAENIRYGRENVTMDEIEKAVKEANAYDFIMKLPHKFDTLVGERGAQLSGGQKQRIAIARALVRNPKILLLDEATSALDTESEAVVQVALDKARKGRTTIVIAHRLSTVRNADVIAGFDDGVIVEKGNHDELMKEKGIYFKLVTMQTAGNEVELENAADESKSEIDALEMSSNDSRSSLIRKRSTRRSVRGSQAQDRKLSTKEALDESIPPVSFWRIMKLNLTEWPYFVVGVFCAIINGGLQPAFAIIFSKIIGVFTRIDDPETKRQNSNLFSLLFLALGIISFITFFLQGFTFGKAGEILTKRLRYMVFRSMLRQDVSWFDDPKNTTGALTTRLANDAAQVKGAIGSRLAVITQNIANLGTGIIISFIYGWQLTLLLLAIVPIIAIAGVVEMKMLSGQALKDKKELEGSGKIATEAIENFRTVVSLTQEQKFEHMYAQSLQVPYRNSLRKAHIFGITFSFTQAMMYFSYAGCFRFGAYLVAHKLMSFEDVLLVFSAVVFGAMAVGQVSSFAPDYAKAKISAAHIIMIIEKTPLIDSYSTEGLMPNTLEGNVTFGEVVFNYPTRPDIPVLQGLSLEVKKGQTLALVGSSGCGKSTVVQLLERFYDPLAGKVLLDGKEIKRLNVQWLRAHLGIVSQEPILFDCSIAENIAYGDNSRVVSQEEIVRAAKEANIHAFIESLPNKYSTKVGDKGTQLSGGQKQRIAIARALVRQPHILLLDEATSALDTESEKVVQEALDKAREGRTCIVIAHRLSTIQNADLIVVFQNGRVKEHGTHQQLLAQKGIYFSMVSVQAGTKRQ

| SMILES | CYP 3A4 induction mRNA: Mean fold at 10 μM ([1]; donor five) | CYP 3A4 induction mRNA: Mean fold at 10 μM ([1]; donor four) | CYP 3A4 induction mRNA: Mean fold at 10 μM ([1]; donor three) | MDCKII-MDR1: Efflux Ratio [2] | MDCKII-MDR1: Papp A-B [2] | IC50 [3] [nM] | CYP 3A4 induction mRNA: Mean fold at 10 μM ([1]; donor two) | CYP 3A4 induction mRNA: Mean fold at 10 μM ([1]; donor one) |
| --- | --- | --- | --- | --- | --- | --- | --- | --- |
| Cc1ccc(-c2noc(CC(O)C(F)F)n2)cc1NC(=O)c1cnc2ccccn12 (stereo not shown) [Compound I-114] | + (induction fold of less than or equal to 2-fold) | + (induction fold of less than or equal to 2-fold) | + (induction fold of less than or equal to 2-fold) | 3.67 | 7.8 10^−6 cm/s | 50 to 500 |  |  |
| Cc1ccc(-c2noc(C3CCN3)n2)cc1NC(=O)c1cnc2ccccn12 (racemic) [Compound I-394] | + (induction fold of less than or equal to 2-fold) | + (induction fold of less than or equal to 2-fold) | + (induction fold of less than or equal to 2-fold) | 3.08 | 6.21 10^−6 cm/s |  |  |  |
| Cc1ccc(-c2noc([C@H]3C[C@@H]3F)n2)cc1NC(=O)c1cnc2cc(OC(F)(F)F)ccn12 [Compound I-87] |  | + (induction fold of less than or equal to 2-fold) |  | 0.74 | 4.58 10^−6 cm/s | 50 to 500 |  |  |
| Cc1ccc(-c2noc([C@H]3C[C@@H]3F)n2)cc1NC(=O)c1cnc2ccc(F)cn12 [Compound I-288] |  |  |  | 0.51 | 20.6 10^−6 cm/s | 50 to 500 | ++++ (induction fold of greater than 10-fold) |  |
| COc1ccc2ncc(C(=O)Nc3cc(-c4noc(C[C@@H](C)O)n4)ccc3C)n2c1 [Compound I-119] |  | + (induction fold of less than or equal to 2-fold) |  |  |  | 500 to 5000 |  |  |
| Cc1ccc(-c2noc([C@H]3CC(F)(F)CN3)n2)cc1NC(=O)c1cnc2ccccn12 [Compound I-359] |  | + (induction fold of less than or equal to 2-fold) |  | 0.81 | 21.4 10^−6 cm/s |  |  |  |
| Cc1ccc(-c2noc([C@H]3C[C@@H]3F)n2)cc1NC(=O)c1cnc2cc(COCC(C)(C)O)ccn12 [Compound I-71, N-[5-[5-[(1R,2S)-2-fluorocyclopropyl]-1,2,4-oxadiazol-3-yl]-2-methyl-phenyl]-7-[(2-hydroxy-2-methyl-propoxy)methyl]imidazo[1,2-a]pyridine-3-carboxamide] | + (induction fold of less than or equal to 2-fold) | + (induction fold of less than or equal to 2-fold) |  |  |  | ≤ 50 |  | + (induction fold of less than or equal to 2-fold) |
| Cc1ccc(-c2noc([C@H]3CCC(=O)N3)n2)cc1NC(=O)c1cnc2ccccn12 (racemic) [Compound I-327] | + (induction fold of less than or equal to 2-fold) | + (induction fold of less than or equal to 2-fold) | + (induction fold of less than or equal to 2-fold) | 38.7 | 0.78 10^−6 cm/s |  |  |  |
| Cc1ccc(-c2noc([C@H](C)O)n2)cc1NC(=O)c1cnc2ccccn12 [Compound I-271] |  | + (induction fold of less than or equal to 2-fold) |  | 1.36 | 18.5 10^−6 cm/s |  |  |  |
| Cc1ccc(-c2noc([C@H]3C[C@@H]3F)n2)cc1NC(=O)c1cnc2cc(OC(C)C)ccn12 [Compound I-88] | + (induction fold of less than or equal to 2-fold) | + (induction fold of less than or equal to 2-fold) |  | 0.86 | 3.92 10^−6 cm/s | ≤ 50 |  | + (induction fold of less than or equal to 2-fold) |
| COCCOCc1ccn2c(C(=O)Nc3cc(-c4noc([C@H]5C[C@@H]5F)n4)ccc3C)cnc2c1 [Compound I-84] |  | + (induction fold of less than or equal to 2-fold) |  | 1.78 | 12.1 10^−6 cm/s | ≤ 50 |  |  |
| COC(=O)N1CC(c2nc(-c3ccc(C(F)F)c(NC(=O)c4cnc5ccccn45)c3)no2)C1 [Compound I-225] |  | +++ (induction fold of greater than 3-fold to less than or equal to 10-fold) |  | 1.1 | 15.9 10^−6 cm/s | 500 to 5000 |  |  |
| Cc1ccc(-c2noc(CC(C)O)n2)cc1NC(=O)c1cnc2ccccn12 (racemic) [Compound I-363] | + (induction fold of less than or equal to 2-fold) | + (induction fold of less than or equal to 2-fold) | + (induction fold of less than or equal to 2-fold) | 2.01 | 13 10^−6 cm/s |  |  |  |
